According to ChEMBL document CHEMBL1201862, “PubChem BioAssay data set” (2004):
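In this assay, cells in 96-well plates receive the compound at five concentrations for 48 hours. Endpoints are linearly interpolated between the surrounding concentrations. GI50 = concentration required for 50% inhibition of growth.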 Activity calls are given as the source filed them. No stated cut-off is given here; in the data, active = GI50 up to about 1.1 µM and inactive = higher.

Key:
Assay in all cases: DTP human tumour cell line panel, 48 h
[1] = system: A549
[2] = system: ACHN
[3] = system: CCRF-CEM
[4] = system: HOP-62
[5] = system: HOP-92
[6] = system: M14
[7] = system: NCI-H460
[8] = system: OVCAR-3
[9] = system: OVCAR-4
[10] = system: OVCAR-5
[11] = system: OVCAR-8
[12] = system: SF-295
[13] = system: SK-MEL-2
[14] = system: SK-MEL-5
[15] = system: SR
[16] = system: TK-10
[17] = system: U-251
[18] = system: UACC-257
[19] = system: UACC-62
[20] = system: UO-31

Measured: GI50

CCOC(=O)c1nc2ccccc2n(CC)c1=O
inactive: [1] > 100 µM | [2] > 100 µM | [3] > 100 µM | [4] > 100 µM | [5] > 100 µM | [6] > 100 µM | [7] 81.7 µM | [8] > 100 µM | [9] > 100 µM | [10] > 100 µM | [11] > 100 µM | [12] > 100 µM | [13] > 100 µM | [14] > 100 µM | [15] > 100 µM | [16] > 100 µM | [17] > 100 µM | [18] > 100 µM | [19] > 100 µM | [20] > 100 µM

CC(=O)c1nccc2c1c(C)nc1ccccc12
inactive: [1] 65 µM | [2] > 100 µM | [3] 16.4 µM | [4] 69.8 µM | [5] 25.8 µM | [6] > 100 µM | [7] 32.8 µM | [8] > 100 µM | [9] > 100 µM | [10] > 100 µM | [11] 72.6 µM | [12] 53.7 µM | [13] > 100 µM | [14] 60.8 µM | [15] 26.4 µM | [16] > 100 µM | [17] > 100 µM | [18] > 100 µM | [19] 53.7 µM | [20] 55.7 µM

CCOC(=O)c1nc2ccc(C(F)(F)F)cc2nc1NCc1ccc(Cl)c(Cl)c1
inactive: [1] 35.2 µM | [2] 22.5 µM | [3] > 100 µM | [4] 21.1 µM | [5] 14.6 µM | [6] 36.9 µM | [7] 45.6 µM | [8] 23.3 µM | [9] 21 µM | [10] > 100 µM | [11] 37.1 µM | [12] 29.8 µM | [13] 63.8 µM | [14] 31.9 µM | [15] 37.9 µM | [16] 34.2 µM | [17] 58.6 µM | [18] 42.4 µM | [19] 30 µM | [20] 45 µM

CCOC(=O)C1C(=O)CN2CCc3c([nH]c4ccccc34)C12C(=O)OCC (stereo not given)
inactive: [1] > 100 µM | [2] > 100 µM | [3] > 100 µM | [4] > 100 µM | [5] > 100 µM | [6] > 100 µM | [7] > 100 µM | [8] > 100 µM | [9] > 100 µM | [10] > 100 µM | [11] > 100 µM | [12] > 100 µM | [13] > 100 µM | [14] > 100 µM | [15] > 100 µM | [16] > 100 µM | [17] > 100 µM | [18] > 100 µM | [19] > 100 µM | [20] > 100 µM

O=c1[nH]c2cc(C(F)(F)F)ccc2nc1C(F)(F)F
inactive: [1] 32.6 µM | [2] 37.3 µM | [3] 30.8 µM | [4] 18.2 µM | [5] 16.6 µM | [6] 45.1 µM | [7] > 100 µM | [8] 18.5 µM | [9] 51.5 µM | [10] 36.9 µM | [11] 36 µM | [12] 30 µM | [13] 33.7 µM | [14] 13.8 µM | [15] 55.8 µM | [16] 49.7 µM | [17] 42 µM | [18] 27.6 µM | [19] 43.2 µM | [20] 30.4 µM

O=C1CSC(c2ccc(Cl)cc2Cl)N1c1ccc(Oc2ccc(Cl)cc2)c(Cl)c1 (stereo not given)
inactive: [1] 27 µM | [2] 35.7 µM | [3] 13.5 µM | [4] 23.8 µM | [5] 21.8 µM | [6] 23.9 µM | [7] 27.4 µM | [8] 17.5 µM | [9] 23.8 µM | [10] 33.3 µM | [11] 29.9 µM | [12] 22 µM | [13] 22.4 µM | [14] 19 µM | [15] 16.3 µM | [16] 51.4 µM | [17] 31.8 µM | [18] 37.1 µM | [19] 21.9 µM | [20] 7.08 µM

CSC1=Nc2ccccc2N(C)c2c1c(-c1ccccc1)nn2C
inactive: [1] 50.4 µM | [2] 29.9 µM | [3] 22.1 µM | [5] 29.5 µM | [6] 41.9 µM | [7] 21.9 µM | [8] 15.2 µM | [9] 43.1 µM | [10] > 100 µM | [11] 32.7 µM | [12] 4.94 µM | [13] 23.2 µM | [14] 17.8 µM | [15] 16.1 µM | [16] 66.8 µM | [17] 31.4 µM | [18] 73.1 µM | [19] 35.2 µM

O=S(=O)(N/N=C/c1c(Cl)cccc1Cl)c1ccccc1
inactive: [1] > 100 µM | [3] 66.1 µM | [4] > 100 µM | [5] > 100 µM | [6] > 100 µM | [7] > 100 µM | [8] > 100 µM | [9] > 100 µM | [10] > 100 µM | [11] > 100 µM | [12] > 100 µM | [13] > 100 µM | [14] > 100 µM | [15] > 100 µM | [16] > 100 µM | [17] 50.7 µM | [18] > 100 µM | [19] 97.7 µM | [20] > 100 µM

O=[N+]([O-])/C=C/c1cn(CCCCCCCCn2cc(/C=C/[N+](=O)[O-])c3ccccc32)c2ccccc12
inactive: [1] > 10 µM | [2] > 10 µM | [3] > 10 µM | [4] > 10 µM | [5] > 10 µM | [6] > 10 µM | [7] > 10 µM | [8] > 10 µM | [9] > 10 µM | [10] > 10 µM | [11] > 10 µM | [12] > 10 µM | [13] > 10 µM | [14] > 10 µM | [15] > 10 µM | [16] > 10 µM | [18] > 10 µM | [19] > 10 µM | [20] > 10 µM

CN(C)C(=S)SCC(N)=O
inactive: [1] > 100 µM | [2] > 100 µM | [3] > 100 µM | [4] > 100 µM | [5] > 100 µM | [6] > 100 µM | [7] > 100 µM | [8] > 100 µM | [9] > 100 µM | [10] > 100 µM | [11] > 100 µM | [12] > 100 µM | [13] > 100 µM | [14] 65.2 µM | [15] > 100 µM | [16] > 100 µM | [17] > 100 µM | [18] > 100 µM | [19] > 100 µM

CCOP(=O)(OCC)C(Cc1c[nH]c2ccccc12)C(=O)O (stereo not given)
inactive: [1] > 100 µM | [2] > 100 µM | [3] > 100 µM | [4] > 100 µM | [5] > 100 µM | [6] > 100 µM | [7] > 100 µM | [8] > 100 µM | [9] > 100 µM | [10] > 100 µM | [11] > 100 µM | [12] > 100 µM | [13] > 100 µM | [14] > 100 µM | [15] > 100 µM | [16] > 100 µM | [17] > 100 µM | [18] > 100 µM | [20] > 100 µM

CNNC(=NS(=O)(=O)c1cc(C#N)c(NNC)cc1S)NNC
inactive: [1] > 10 µM | [2] > 10 µM | [3] > 10 µM | [4] > 10 µM | [5] > 10 µM | [6] > 10 µM | [7] > 10 µM | [8] > 10 µM | [9] > 10 µM | [10] > 10 µM | [11] > 10 µM | [12] > 10 µM | [13] > 10 µM | [14] > 10 µM | [15] > 10 µM | [16] > 10 µM | [17] > 10 µM | [18] > 10 µM | [20] > 10 µM

CC(C)(C)c1ccc(-n2c3nc(=O)n(-c4ccccc4CO)c(=O)c-3cc3ccccc32)cc1
inactive: [1] 76.2 µM | [2] 69.7 µM | [3] 38.1 µM | [5] 36.8 µM | [6] 42.8 µM | [7] 38.9 µM | [9] 49 µM | [10] > 100 µM | [11] 55.3 µM | [12] 41.1 µM | [13] > 10 µM | [14] 38.9 µM | [15] 30.5 µM | [16] 61.5 µM | [17] 55.6 µM | [18] 30.5 µM | [19] 26.8 µM | [20] 42.1 µM

CC(=O)c1cccc(NC(=O)C(=O)C(C(=O)c2ccccc2F)C2OC(=O)c3ccccc32)c1 (stereo not given)
inactive: [1] 54.8 µM | [2] 37.7 µM | [3] 14.8 µM | [4] 61.7 µM | [5] > 100 µM | [6] 92.7 µM | [7] 30.9 µM | [9] 32.5 µM | [10] 64.3 µM | [11] 31.8 µM | [12] 42.6 µM | [13] 29.8 µM | [14] 64 µM | [15] 9.2 µM | [16] > 100 µM | [17] 19.8 µM | [18] 73.5 µM | [19] 34.6 µM | [20] 34.4 µM
